According to ChEMBL document CHEMBL1201862, “PubChem BioAssay data set” (2004):
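Where inhibition never reached the appropriate level, the endpoint shown equals the highest concentration tested. Otherwise, values were interpolated linearly from a five-concentration, 48-hour dose response in 96-well plates. At the GI50, growth is halved.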 Active and inactive are the calls of the source. Cut-off read from the data, not from the text of the source: active = GI50 up to about 1.1 µM and inactive = higher.

Tests used:
Test in all cases: growth of human tumour cells (NCI), 48 h
DLD-1 = tested on: DLD-1
DMS-273 = tested on: DMS-273
HOP-18 = tested on: HOP-18
LXFL 529 = tested on: LXFL 529
M19-MEL = tested on: M19-MEL
SNB-78 = tested on: SNB-78
XF498 = tested on: XF498
DMS-114 = tested on: DMS-114
RXF 631 = tested on: RXF 631

Row | SMILES | GI50 (DLD-1) | GI50 (DMS-273) | GI50 (HOP-18) | GI50 (LXFL 529) | GI50 (M19-MEL) | GI50 (SNB-78) | GI50 (XF498) | GI50 (DMS-114) | GI50 (RXF 631)
1 | CC(=O)Nc1ccc(OCC(O)CO)cc1 (stereo not given) | 23.2 µM (inactive) | > 100 µM (inactive) | > 100 µM (inactive) | 52.8 µM (inactive) | > 100 µM (inactive) | > 100 µM (inactive) | > 100 µM (inactive) |  | 
2 | C=CCN1CCC23c4c5ccc(O)c4OC2C(=NN=C2CCC4(O)C6Cc7ccc(O)c8c7C4(CCN6CC=C)C2O8)CCC3(O)C1C5 (stereo not given) | 38.7 µM (inactive) | 19.1 µM (inactive) | > 100 µM (inactive) | 32.1 µM (inactive) |  | 27.2 µM (inactive) | 17.3 µM (inactive) | 24.7 µM (inactive) | 20.5 µM (inactive)
3 | Cc1cc2c(=O)c3ccc(Cl)cc3[nH]c2c(C(=O)O)c1C | > 100 µM (inactive) |  | > 100 µM (inactive) | > 100 µM (inactive) | > 100 µM (inactive) | > 100 µM (inactive) | > 100 µM (inactive) | > 100 µM (inactive) | 
4 | CC(C)(C)C(=O)Nc1ccccc1Br | > 100 µM (inactive) | > 100 µM (inactive) |  | > 100 µM (inactive) | > 100 µM (inactive) |  | > 100 µM (inactive) | > 100 µM (inactive) | 
5 | Cc1cc(N)c2cc(NC(=O)CCCCCCCCC(=O)Nc3ccc4nc(C)cc(N)c4c3)ccc2n1 | > 100 µM (inactive) | 7.19 µM (inactive) | > 100 µM (inactive) | 4.37 µM (inactive) | 15.4 µM (inactive) | > 100 µM (inactive) | > 27.2 µM (inactive) |  | 
6 | CC(C)C1COC(c2ccc3ccccc3c2-c2c(O[Si](C)(C)C(C)(C)C)ccc3ccccc23)=N1 (stereo not given) | 17.1 µM (inactive) | 21.4 µM (inactive) |  | 15.4 µM (inactive) | 18.8 µM (inactive) | 6.59 µM (inactive) | 14.5 µM (inactive) | 15.6 µM (inactive) | 14.9 µM (inactive)
7 | CCCCN(CCCC)CCCn1cnc2ncccc2c1=O | > 100 µM (inactive) | > 100 µM (inactive) |  | > 100 µM (inactive) | > 100 µM (inactive) | > 100 µM (inactive) | > 100 µM (inactive) | 53.6 µM (inactive) | 
8 | O=C(CC12C3C4C1C1C2C3C41CC(=O)NO)NO (stereo not given) | 48.1 µM (inactive) | 40.6 µM (inactive) |  | 47.6 µM (inactive) |  | 44.3 µM (inactive) | > 100 µM (inactive) | 24.2 µM (inactive) | 27.4 µM (inactive)
9 | Cc1ccccc1NC(=O)C(=O)c1c(O)c2ccc(O)cc2oc1=O | > 100 µM (inactive) | > 100 µM (inactive) | > 100 µM (inactive) | > 100 µM (inactive) | > 100 µM (inactive) |  | > 100 µM (inactive) | > 100 µM (inactive) | 
10 | CCC(C)CCOC(=O)c1ccc(/N=C\c2ccc(/C=N/c3ccc(C(=O)OCCC(C)CC)cc3)cc2)cc1 (stereo not given) | > 100 µM (inactive) | > 100 µM (inactive) | > 100 µM (inactive) | > 100 µM (inactive) |  | > 100 µM (inactive) |  | > 100 µM (inactive) | 
11 | C=CC1=CC(C)C[C@]1(O)C(=O)OC (stereo not given in full) | < 0.01 µM (active) | < 0.01 µM (active) | > 100 µM (inactive) | < 0.01 µM (active) | < 0.01 µM (active) | > 100 µM (inactive) | < 0.01 µM (active) | < 0.01 µM (active) | < 0.01 µM (active)
12 | CSc1ccc2c(cc1=O)C(NC(=O)c1ccc(OC(C)=O)cc1)CCc1cc(O)c(O)c(O)c1-2 (stereo not given) | 17.8 µM (inactive) | 22.5 µM (inactive) |  | 17.3 µM (inactive) | 12.8 µM (inactive) | 30.8 µM (inactive) |  | 19.8 µM (inactive) | 
13 | CCCN(CCC)c1c([N+](=O)[O-])cc(C(N)=O)cc1[N+](=O)[O-] | > 100 µM (inactive) | 58.9 µM (inactive) |  | > 100 µM (inactive) | 48.5 µM (inactive) |  | 81.3 µM (inactive) | 71.9 µM (inactive) | 
14 | O=C(CCN(CCO)CCO)Nc1ccc2c(c1)C(=O)c1ccc(NC(=O)CCN(CCO)CCO)cc1C2=O |  | 6.64 µM (inactive) | 27 µM (inactive) | 2.05 µM (inactive) | 13.7 µM (inactive) | 6.62 µM (inactive) | 11.9 µM (inactive) | 5.11 µM (inactive) | 
15 | CC12CCC(=O)N1c1ccc([N+](=O)[O-])cc1N2 (stereo not given) | > 100 µM (inactive) | > 100 µM (inactive) | > 100 µM (inactive) | > 100 µM (inactive) | > 100 µM (inactive) | > 100 µM (inactive) |  | > 100 µM (inactive) | 
